This test has as its system NCI-H1876 complex spheroid viability. Briefly: Anticancer human tumor NCI-H1876 cell line growth inhibition [LSD1].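 On all read-outs here: spheroids exposed to compounds for one week before readout.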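 On viability, T/C: 100% = DMSO vehicle-treated spheroids so lower means fewer viable cells.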 To be noted: for viability, T/C: stronger effect = lower value. An excerpt: Multicellular complex tumor spheroid response to LSD1 Inhibitor Iadademstat in combination with a variety of drugs and investigational agents in selected tumor cell lines
The current study was undertaken to assess response to LSD1 inhibitors in combination with standard-of-care drugs and investigational agents in solid tumor complex spheroid models as well as in the K-562 leukemia. Complex spheroids include a stromal component modeled by human endothelial cells (HUVEC) and fibroblasts modeled by human mesenchymal stem cells (MSCs). The concentration ranges selected for each drug and investigational agent were based upon clinically achievable concentrations if the clinical Cmax of the agent was known.
Compounds. The drugs and investigational agents used in this study are listed on Table 1. All of the agents used, including staurosporine (NSC755774) and gemcitabine (NSC613327), were obtained from the Developmental Therapeutics Program, NCI. FDA-approved anticancer drugs are available from the NCI at http://dtp.nci.nih.gov/branches/dscb/oncology_drugset_explanation.html. Drugs and investigational agents were >95% pure by proton nuclear magnetic resonance (NMR) and liquid chromatography/mass spectrometry (LC/MS). Stock solutions were prepared at 400x in DMSO, stored at -70 degrees C, and diluted in fresh medium prior to their use. The final concentration of DMSO in cell culture wells never exceeded 0.25% (v/v). The FDA-approved anticancer drug set is available from the Developmental Therapeutics Program at https://dtp.cancer.gov/organization/dscb/obtaining/available_plates.htm. All drugs and investigational agents were tested over a range starting from a high concentration at or near the clinical Cmax and decreasing in half-log increments. If the clinical Cmax for an agent had not been determined, the highest concentration tested was 10 microM.
Cell Lines. The patient-derived cancer cell (PDC) lines: 292921-168-R-J2-PDC, K24384-001-R-PDC, and 521955-158-R2-J5-PDC pancreatic carcinomas, 556581-035-R-J1 ovarian carcinoma, 324938-238-R-J1-PDC, 855422-203-R-J1-PDC and 883617-216-R-J1-PDC urothelial bladder carcinomas, 743489-274-T-PDC renal cell carcinoma, 138582-R-J1 Merkel cell tumor, K60290-347-R-J1 and K57222-313-R-J1-PDC glioblastomas, 653999-131-R-J2-PDC, LG0703-F948-PDC, and 349418-098-R-PDC non-small cell lung carcinomas, 885512-296-R-J2-PDC, 171881-019-R-J1-PDC breast carcinomas and 186277-243-T-J2-PDC and 233499-124-R-J2-PDC colon carcinomas were obtained from the NCI Patient-Derived Models Repository (PDMR, https://pdmr.cancer.gov). The established cell lines NCI/ADR-RES (RRID:CVCL_14520 and OVCAR-5 (RRID:CVCL_1628) ovarian carcinomas, 786-O (RRID:CVCL_1051) and A498 (RRID:CVCL_A498) renal cell carcinoma, NCI-H211 (ATCC, cat. CRL-5824; RRID:CVCL_1529), NCI-H196 (ATCC, cat. CRL-5823, RRID:CVCL_1509), SW 1271 (ATCC, cat. CRL-2177, RRID:CVCL_1716) and NCI-H1876 (ATCC, cat. CRL-5902, RRID:CVCL_1503) small cell lung carcinomas, MDA-MB-231 (RRID:CVCL_0062) and MDA-MB-468 (RRID:CVCL_0419)breast carcinomas (10-12). Pooled donor human umbilical vein endothelial cells (HUVEC, Lonza, cat. CC-2519) and human mesenchymal stem cells (hMSC, Lonza, cat. PT-2501) were purchased from Lonza (Walkersville, MD).
Cell Culture. All cells were maintained in an incubator at 37 degrees C and 5% CO2 with 95% humidity. The PDC lines were cultured according to standard operating procedures established by the NCI PDMR (https://pdmr.cancer.gov). Briefly all PDCs were thawed and cultured in Matrigel-coated flasks prepared with a working solution of 1X Ham's F-12 nutrient mix, without supplementation (Invitrogen, Waltham, MA, cat. 11765054), 100 U/mL penicillin-streptomycin (Invitrogen, cat. 15140122), and 2.5% Matrigel (Corning Inc., Corning, NY, cat. 354248) for the first three passages. […]

Six compounds from PubChem BioAssay AID1918957 (Molecular Pharmacology Branch, DTP, NCI, 2023) can be followed below.

Broadly, the viability, T/C is the result in the treated group divided by that in the control group, in per cent. As usually defined, the IC50 is the concentration that gives 50% inhibition.

SMILES strings stand for the structures. Values joined by “and” are separate entries in the source; they are usually repeats but may differ in a detail not shown here. Equal values may be shown once.

Turning to `CC(C)c1c(-c2ccccc2)nc2c(C#N)c[nH]n2c1=O`, the viability, T/C (compound 0.0316 µM) is 93.8% and 104%; the viability, T/C (compound 0.1 µM) is 94.6% and 101%; the viability, T/C (compound 0.316 µM) was 92.2% and 103%; the viability, T/C (compound 1 µM) is 92% and 102%; the viability, T/C (compound 3.16 µM) was 89.2% and 94.4%; the viability, T/C (compound 10 µM) was 27.8% and 33.1%. For the same compound, the IC50 (curve of compound) was 6.59 µM and 7.28 µM.
With `CC1COCCN1c1cc(C2(S(C)(=N)=O)CC2)nc(-c2ccnc3[nH]ccc23)n1` (stereo not drawn), the viability, T/C reads like this: (compound 0.0316 µM) 103% and 104%; (compound 0.1 µM) 109% and 102%; (compound 0.316 µM) 102% and 103%; (compound 1 µM) 102% and 105%; (compound 3.16 µM) 80.3% and 74.2%; (compound 10 µM) 28.5% and 23.1%. Moreover, the concentration for half-maximal inhibition (IC50) (curve of compound) was 6.2 µM and 5.45 µM.
As for `COc1ccc([C@@H](O)c2cc(-c3ncnc4cc(N5CCOCC5)ccc34)c(F)cc2Cl)nn1`, the viability, T/C is, setting by setting: (compound 0.0316 µM) 93.6% and 98%; (compound 0.1 µM) 101% and 97.7%; (compound 0.316 µM) 91.2% and 85.7%; (compound 1 µM) 84.5% and 68.1%; (compound 3.16 µM) 59.4% and 41.1%; (compound 10 µM) 25.1% and 10.8%. Moreover, the IC50 (curve of compound) is 4.34 µM and 2.15 µM.
Take `NC1CC1c1ccc(-c2cccc(O)c2)cc1` (stereo not drawn): the viability, T/C (compound 0.1 µM) was 94%. Moreover, the IC50 (compound alone, run of 02/21/2022) was over 10 µM.
`NC1CCC(NC2CC2c2ccccc2)CC1` (stereo not drawn): the viability, T/C (compound 0.316 µM) is 98.5% and 109%; the viability, T/C (compound 1 µM) was 102% [middle of 25 runs]; the viability, T/C (compound 3.16 µM) was 102% [middle of 25 runs]; the viability, T/C (compound 10 µM) is 103% [middle of 23 runs]. Further, the IC50 (compound alone, run of 02/15/2022) was over 10 µM.
`Nc1ncn(C2CC(O)C(CO)O2)c(=O)n1` (stereo not drawn) + NC1CC1c1ccc(-c2cccc(O)c2)cc1: the IC50 is over 1 µM (curve of first compound, second compound 0.1 µM); over 1 µM (curve of first compound, second compound 0.316 µM); over 1 µM (curve of first compound, second compound 1 µM); over 1 µM (curve of first compound, second compound 3.16 µM); over 1 µM (curve of first compound, second compound 10 µM). For the same compound, the viability, T/C is 109% (second compound 0.1 µM, first compound 0.00316 µM); 103% (second compound 0.1 µM, first compound 0.01 µM); 105% (second compound 0.1 µM, first compound 0.0316 µM); 98.6% (second compound 0.1 µM, first compound 0.1 µM); 91% (second compound 0.1 µM, first compound 0.316 µM); 101% (second compound 0.1 µM, first compound 1 µM). In addition, the viability, T/C is, setting by setting: (second compound 0.316 µM, first compound 0.00316 µM) 113%; (second compound 0.316 µM, first compound 0.01 µM) 110%; (second compound 0.316 µM, first compound 0.0316 µM) 105%; (second compound 0.316 µM, first compound 0.1 µM) 99%; (second compound 0.316 µM, first compound 0.316 µM) 96%; (second compound 0.316 µM, first compound 1 µM) 94.3%. Besides, the viability, T/C (second compound 1 µM, first compound 0.00316 µM) was 106%; the viability, T/C (second compound 1 µM, first compound 0.01 µM) was 114%; the viability, T/C (second compound 1 µM, first compound 0.0316 µM) was 106%; the viability, T/C (second compound 1 µM, first compound 0.1 µM) is 102%; the viability, T/C (second compound 1 µM, first compound 0.316 µM) was 104%; the viability, T/C (second compound 1 µM, first compound 1 µM) is 101%. Besides, the viability, T/C is 106% (second compound 3.16 µM, first compound 0.00316 µM); 113% (second compound 3.16 µM, first compound 0.01 µM); 107% (second compound 3.16 µM, first compound 0.0316 µM); 99.1% (second compound 3.16 µM, first compound 0.1 µM); 94.3% (second compound 3.16 µM, first compound 0.316 µM); 89.8% (second compound 3.16 µM, first compound 1 µM). The viability, T/C reads like this: (second compound 10 µM, first compound 0.00316 µM) 109%; (second compound 10 µM, first compound 0.01 µM) 107%; (second compound 10 µM, first compound 0.0316 µM) 103%; (second compound 10 µM, first compound 0.1 µM) 108%; (second compound 10 µM, first compound 0.316 µM) 93.4%; (second compound 10 µM, first compound 1 µM) 92.1%.
